Residues, ends and D or L forms follow the SMILES beside them.
Experiments:
Assay type in all cases: cell-based
[1] = system: Human polymorphonuclear leukocytes (PMNs); experiment: Phagocytosis assay (fluorescent microspheres engulfed per PMN)
Procedure: Phagocytosis Assay Human polymorphonuclear leukocytes (PMNs) were prepared from venous blood of healthy donors. Heparinized blood was mixed with dextran and kept at 37° C. for 1 hour. The leukocyte-rich plasma was collected and centrifuged. The resulting pellet was washed with Hank's balanced salt solution (HBSS). The pellet was then suspended into HBSS, layered over Lymphocyte Separation Medium (LSM) and centrifuged. The sedimented cells were washed with HBSS. Contaminant erythrocytes were lysed by suspending the cells in sterile water for 15 seconds. The isotonicity was then restored by adding 10× HBSS. After centrifuging, the PMNs were washed with HBSS, suspended in the same medium, counted, and adjusted to 1×10^6 viable cells/ml (viability>95% by trypan blue dye exclusion). Cells (0.5×10^6 /well) were plated in 24 well plate and placed in a 37° C. CO2 incubator for 30 min to form a monolayer. Thereafter the supernatant was aspirated. Tuftsin or analog in 250 μl HBSS and 2.5×10^7 fluorescent microspheres (2 μm diameter) in 250 μl HBSS, were added to each well resulting in a particle to PMN ratio of 50:1, mixed, and incubated for 15 min. The supernatant was then quickly aspirated and each well washed with HBSS. One ml of trypsin (0.25% in saline) was added to each well and the plate incubated for 15 min to detach the cells and remove non-engulfed particles associated on the surface of PMN. The cells were transferred, layered over 2 ml fetal bovine serum (FBS), and centrifuged. The supernatant containing free particles were removed. The cell pellet was suspended, fixed in 2% paraformaldehyde, and plated again into a well. After 10 min, particles engulfed per PMN were counted under a microscope (100 cells per well). The mean values from triplicates were used to calculate percent phagocytosis increase over control mean value. Using purified cyclo[[…]] (SEQ ID no. 1) as an example, we have examined in vitro biological activities of this peptide. A phagocytosis assay was performed to compare the activity of cyclo[[…]] (SEQ ID no. 1) to that of tuftsin. The optimum concentration of tuftsin in this assay is 5 μg/ml. However, the optimum concentration for cyclo[[…]]

[2] = system: THP-1 (human acute monocytic leukemia) cell line; experiment: Thymidine incorporation assay (growth stimulation effect); details: THP-1 cells, at 0.001 and 10 μg/ml; FIG. 2
Procedure: Thymidine Incorporation Assay
THP-1 (a human acute monocytic leukemia line) cells were subcultured in RPMI-1640 medium with 10% FBS. Next day THP-1 cells were collected, washed with RPMI-1640 medium with 2% FBS, and plated into well with peptide (1×10^6 cell in 1 ml). The plate was incubated for 18 hours. ^3 H-thymidine (0.1 μCi per well) was then introduced. The plate was incubated for another hour. The cells were collected into a tube using 1 ml of cold HBSS. After washing the cells twice, the cells were mixed with 0.2 ml of 0.1% sodium dodecyl sulfate, and transferred to a liquid scintillation vial for determination of radioactivity. The mean values from triplicates were used to calculate percent increase over control mean value.
To examine the growth stimulating effect of peptides, a thymidine incorporation experiment was performed using THP-1 (human acute monocytic leukemia) cell line.

[3] = system: human NK cells; experiment: Tumor cell cytotoxicity assay by human NK cells (4 hour 51Cr release, K-562 targets); details: effector:target ratios of 25:1 and 50:1, peptide concentration 1 μg/ml, FIG. 3
Procedure: Tumor Cell Cytotoxicity Assay by Human NK Cells
Heparinized blood was layered over Leukoprep tube (30 ml per tube), and centrifuged. The mononuclear cells at interphase were collected, washed with HBSS, suspended in RPMI-1640 medium with 10% FBS (15 ml per 30 ml starting blood), plated on Petri dishes, and incubated for 1 hour. Non-adherent cells were collected, suspended in RPMI-1640 medium with 5% FBS, and adjusted to 1×10^6 /ml for 4 hour ^51 Cr release assay. The viability of this NK cell enriched fraction was assessed with trypan blue.
The tumor target cells, K-562, were harvested from culture, washed with RPMI-1640 medium with 5% FBS, and centrifuged. Pelleted cells of 2×10^6 K-562 were suspended into 0.2 ml of 100 μCi of ^51 CrO4 in saline, and labelled for 90 min in the incubator. The labelled target cells were washed with RPMI-1640 medium with 5% FBS, suspended in the same medium, and adjusted to a suspension of 2×10^5 /ml. […] Filters containing radioactive supernatants were counted on a γ counter, and counts per minutes (cpm) were recorded. Percent cytotoxicity (% specific lysis) was calculated by the following formula: […]
Spontaneous cpm was obtained by incubating the tumor target cells alone in the medium. Maximum cpm was obtained by releasing the radioactivity from the target cells by treatment with Triton X-100. […]

With `C[C@@H](O)[C@@H]1NC(=O)CNC(=O)[C@H](CCCNC(=N)N)NC(=O)[C@@H]2CCCN2C(=O)[C@H](CCCCN)NC1=O` [cyclo[Thr-Lys-Pro-Arg-Gly]] (cyclo(GTKPR)) the “extent of phagocytosis compared with tuftsin at 5 μg/ml” value ([1]; 0.1 μg/ml of cyclic peptide vs 5 μg/ml of tuftsin) was “no significant difference”, the “potency in phagocytosis assay compared with tuftsin” value ([1]; at lower concentrations of 0.01 and 0.1 μg/ml, Student t-test, FIG. 1) was “significantly superior potency over tuftsin” and the “optimum concentration in phagocytosis assay” value ([1]; human PMNs, 15 min incubation, particle to PMN ratio 50:1, FIG. 1) was 0.1 µg/mL. For the same compound, the “optimum concentration, fold lower than tuftsin” value ([1]; phagocytosis assay, human PMNs) was 50 fold, the “growth stimulating activity (3H-thymidine incorporation) compared with tuftsin” value [2] was “significantly greater activities than tuftsin” and the “enhancement of NK tumor cell cytotoxicity compared with tuftsin” value [3] was “significantly greater cytotoxicity”.
